Source: US11629147B2, “Triazolo-pyrimidine compounds and uses thereof” (Dizal (Jiangsu) Pharmaceutical Co., Ltd., priority 2019, dated 2023)

Tests used:
hA2a = hA2a (Homo sapiens (Human), UniProt P29274); assay: cAMP inhibition assay in hA2a/CHO cells; assay type: cell-based; conditions: 10 μM adenosine, read-out: cAMP & FLIPR IC50 (nM) hA2a
Experimental: (§1) hA2a/CHO, hA2b/CHO and mA2a/CHO(Genscript) were plated at 5×10^3 cells/well into 384-well polystyrene plates at the day of experiment. Compounds were pre-incubated with cells for 30 min at 37° C., 5% CO2. Then 10 μM adenosine was added to the cells and incubated for 30 min at 37° C., 5% CO2. Detection reagent (CISBIO) was added and the plates were incubated for 60 min at room temperature. The signal was captured by Envision.
FLIPR™ and cAMP inhibition activities of exemplary compounds in different adenosine receptor over-expressing cell lines are shown in Table 4 below.

mA2a = mA2a (Mus musculus (Mouse), UniProt Q60613); assay: cAMP inhibition assay in mA2a/CHO cells; assay type: cell-based; conditions: 10 μM adenosine, read-out: cAMP & FLIPR IC50 (nM) mA2a
Chain of mA2a (Q60613 whole entry): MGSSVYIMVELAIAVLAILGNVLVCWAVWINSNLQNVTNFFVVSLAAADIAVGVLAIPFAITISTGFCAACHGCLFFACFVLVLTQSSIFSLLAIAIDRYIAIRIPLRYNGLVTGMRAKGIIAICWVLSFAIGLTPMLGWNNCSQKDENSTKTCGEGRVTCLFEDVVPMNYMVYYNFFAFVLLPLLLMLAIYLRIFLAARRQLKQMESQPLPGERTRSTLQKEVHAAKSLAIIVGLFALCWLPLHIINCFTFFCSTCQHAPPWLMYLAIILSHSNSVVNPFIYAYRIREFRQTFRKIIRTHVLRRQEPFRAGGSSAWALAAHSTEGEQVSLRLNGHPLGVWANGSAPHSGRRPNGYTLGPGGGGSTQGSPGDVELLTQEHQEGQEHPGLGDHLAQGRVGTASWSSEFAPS
Experimental: as §1

Chain of hA2a (P29274 whole entry): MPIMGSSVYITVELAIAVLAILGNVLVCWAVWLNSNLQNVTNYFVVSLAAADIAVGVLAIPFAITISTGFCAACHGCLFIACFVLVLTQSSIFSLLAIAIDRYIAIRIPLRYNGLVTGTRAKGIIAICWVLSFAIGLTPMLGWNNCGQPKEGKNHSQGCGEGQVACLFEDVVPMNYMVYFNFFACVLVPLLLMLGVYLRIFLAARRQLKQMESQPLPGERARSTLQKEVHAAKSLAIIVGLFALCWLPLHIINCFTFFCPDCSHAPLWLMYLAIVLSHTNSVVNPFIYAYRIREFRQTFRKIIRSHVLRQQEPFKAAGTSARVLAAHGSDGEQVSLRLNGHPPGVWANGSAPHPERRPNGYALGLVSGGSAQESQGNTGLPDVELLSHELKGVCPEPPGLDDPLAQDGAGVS

IC50 (hA2a): 0.1 nM | IC50 (mA2a): 1 nM
SMILES: Cc1cnc2ccc(-c3c(-c4ccc(F)cc4)nc(N)n4nc(CC5CCOC5)nc34)cn12 (single isomer, unassigned; isomer 2) [Example 105-2, 7-(4-fluorophenyl)-8-(3-methylimidazo[1,2-a]pyridin-6-yl)-2-((tetrahydrofuran-3-yl)methyl)-[1,2,4]triazolo[1,5-c]pyrimidin-5-amine (isomer 2)]
